The values below come from PubChem BioAssay (NCI).

Some test systems named below: NCI-H460 lung; OVCAR-3 ovarian; HOP-92 NSCLC; RXF 393 renal; SK-MEL-5 melanoma; HCT-116 colon; K-562 leukemia; IGROV1 ovarian; OVCAR-4 ovarian; SNB-75 CNS.
Holding throughout (assay): NCI-60 cell line screen, 48 h

“And” between values parts separate entries of the source, which are not always exact repeats. Equal entries are not always repeated.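 Exposure lasted 48 hours, with cells grown in 96-well plates and compounds tested at five concentrations. GI50 marks 50% less growth. TGI: concentration producing complete growth inhibition.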 Where only a bound is given, the exact number is not on record here.

As for `O=c1ncccn1[C@@H]1O[C@H](CO)[C@H](O)C1O` (stereo partly drawn), the TGI with NCI-H460 lung, in the experiment on OVCAR-3 ovarian, with HOP-92 NSCLC, with RXF 393 renal, in the experiment on SK-MEL-5 melanoma and in the experiment with HCT-116 colon was more than 100 µM throughout. Besides, the TGI with K-562 leukemia, in the experiment on IGROV1 ovarian, in the experiment with OVCAR-4 ovarian and in the experiment on SNB-75 CNS was more than 100 µM in each case.

Take `O=C(Nc1cccc(Cl)c1)Nn1cnnc1`: the GI50 with NCI-H460 lung was more than 50 µM; with OVCAR-3 ovarian it was more than 50 µM; with HOP-92 NSCLC it was 12.7 µM; with RXF 393 renal, more than 50 µM; in the experiment on SK-MEL-5 melanoma, more than 50 µM; in the experiment on HCT-116 colon, more than 50 µM. For the same compound, the GI50 with K-562 leukemia, with IGROV1 ovarian, in the experiment on OVCAR-4 ovarian and in the experiment with SNB-75 CNS was more than 50 µM throughout. Besides, the TGI is more than 100 µM with NCI-H460 lung; more than 100 µM with OVCAR-3 ovarian; 50 µM and > 100 µM with HOP-92 NSCLC; more than 100 µM in the experiment on RXF 393 renal; more than 100 µM in the experiment with SK-MEL-5 melanoma; more than 100 µM in the experiment on HCT-116 colon. Further, the TGI with K-562 leukemia, in the experiment on IGROV1 ovarian, in the experiment with OVCAR-4 ovarian and in the experiment with SNB-75 CNS was more than 100 µM throughout.

On to `c1cc[c]([Sn][c]2ccccc2)cc1`, for which the GI50 with NCI-H460 lung is 14 µM; in the experiment with OVCAR-3 ovarian, 17.8 µM; in the experiment on HOP-92 NSCLC, 19 µM; in the experiment on RXF 393 renal, 12.4 µM; in the experiment on SK-MEL-5 melanoma, 16.8 µM; in the experiment on HCT-116 colon it was 18.2 µM. Also, the GI50 in the experiment with K-562 leukemia was 25.2 µM; with IGROV1 ovarian, 38.9 µM; in the experiment with OVCAR-4 ovarian, 24 µM; in the experiment on SNB-75 CNS it was 30.2 µM. Further, the TGI with NCI-H460 lung was 20.2 µM; with OVCAR-3 ovarian, 35 µM; in the experiment on HOP-92 NSCLC it was 47.5 µM; with RXF 393 renal, 36.5 µM; with SK-MEL-5 melanoma, 31.9 µM; in the experiment with HCT-116 colon, 37.7 µM. Besides, the TGI in the experiment with K-562 leukemia is 69 µM; in the experiment on IGROV1 ovarian it was more than 100 µM; in the experiment on OVCAR-4 ovarian it was 55.2 µM; with SNB-75 CNS it was more than 100 µM.

As to `O=C(c1ccc2ccccc2c1)c1c(C(F)(F)F)n([O-])c2ccc(C(F)(F)F)cc2[n+]1=O`, the GI50 in the experiment on NCI-H460 lung is 1.8 µM; in the experiment on OVCAR-3 ovarian, 0.884 µM; in the experiment with HOP-92 NSCLC it was 0.899 µM; in the experiment with RXF 393 renal, 0.974 µM; in the experiment with SK-MEL-5 melanoma it was 0.927 µM; with HCT-116 colon, 0.498 µM. For the same compound, the GI50 in the experiment with K-562 leukemia is 0.608 µM; with IGROV1 ovarian, 0.27 µM; in the experiment on OVCAR-4 ovarian it was 0.249 µM; in the experiment on SNB-75 CNS, 0.64 µM. Moreover, the TGI is 3.69 µM in the experiment with NCI-H460 lung; 2.26 µM in the experiment on OVCAR-3 ovarian; 2.28 µM in the experiment on HOP-92 NSCLC; 2.54 µM with RXF 393 renal; 2.37 µM in the experiment with SK-MEL-5 melanoma; 1.16 µM in the experiment with HCT-116 colon. Moreover, the TGI with K-562 leukemia was determined as 1.14 µM; in the experiment with IGROV1 ovarian, 0.815 µM; in the experiment on OVCAR-4 ovarian, 0.607 µM; with SNB-75 CNS, 1.48 µM.

Take `CCSC1=NC2C(N(CC)C(=O)N2CC)N1/N=C/C=C/c1ccccc1[N+](=O)[O-]` (stereo not drawn): the GI50 with NCI-H460 lung is 0.228 µM; with OVCAR-3 ovarian, 0.169 µM; in the experiment with HOP-92 NSCLC, 1.17 µM; in the experiment on RXF 393 renal, 0.033 µM; in the experiment on SK-MEL-5 melanoma, 0.112 µM; in the experiment with HCT-116 colon it was 0.114 µM. Besides, the GI50 with K-562 leukemia is 0.0583 µM; with IGROV1 ovarian, 0.246 µM; in the experiment on OVCAR-4 ovarian, 0.28 µM; with SNB-75 CNS, 0.0528 µM. Further, the TGI with NCI-H460 lung was 12.2 µM; in the experiment on HOP-92 NSCLC, more than 83.8 µM; in the experiment with RXF 393 renal, more than 100 µM; with SK-MEL-5 melanoma it was 0.538 µM; in the experiment on HCT-116 colon it was more than 100 µM; in the experiment with K-562 leukemia, more than 100 µM. Also, the TGI in the experiment with IGROV1 ovarian, in the experiment with OVCAR-4 ovarian and with SNB-75 CNS was more than 100 µM throughout.

For the compound `CO/N=C(\COc1ccc2c(c1)[nH]c1ccccc12)c1ccc(OC)cc1`, the GI50 was 21.8 µM in the experiment with NCI-H460 lung; 32.9 µM in the experiment on OVCAR-3 ovarian; 11.9 µM in the experiment on HOP-92 NSCLC; 15.8 µM in the experiment on RXF 393 renal; 15.7 µM in the experiment on SK-MEL-5 melanoma; 28.3 µM with HCT-116 colon. Also, the GI50 with K-562 leukemia is 31 µM; in the experiment with IGROV1 ovarian, 31.5 µM; in the experiment with OVCAR-4 ovarian, 10.5 µM; with SNB-75 CNS it was 6.66 µM. The TGI in the experiment with NCI-H460 lung, with OVCAR-3 ovarian, with HOP-92 NSCLC, with RXF 393 renal, with SK-MEL-5 melanoma and with HCT-116 colon was more than 100 µM each time. The TGI in the experiment on K-562 leukemia, with IGROV1 ovarian, in the experiment on OVCAR-4 ovarian and in the experiment on SNB-75 CNS was more than 100 µM each time.

In the case of `O=C1/C(=C/c2ccc([N+](=O)[O-])cc2)CN(C(=O)CCN2CCC(=NO)CC2)C/C1=C\c1ccc([N+](=O)[O-])cc1`, the GI50 was 1.15 µM in the experiment on NCI-H460 lung; 0.801 µM in the experiment with OVCAR-3 ovarian; 2.81 µM in the experiment on HOP-92 NSCLC; 1.49 µM in the experiment with RXF 393 renal; 1.99 µM with SK-MEL-5 melanoma; 0.552 µM with HCT-116 colon. Moreover, the GI50 with K-562 leukemia was 0.216 µM; in the experiment with IGROV1 ovarian, 0.817 µM; in the experiment on OVCAR-4 ovarian it was 1.31 µM; in the experiment on SNB-75 CNS, 1.95 µM. Moreover, the TGI is 3.95 µM in the experiment with NCI-H460 lung; 2.31 µM in the experiment with OVCAR-3 ovarian; 9.36 µM with HOP-92 NSCLC; 3.14 µM in the experiment on RXF 393 renal; 4.38 µM in the experiment on SK-MEL-5 melanoma; 1.53 µM in the experiment on HCT-116 colon. The TGI in the experiment with K-562 leukemia was more than 60.9 µM; in the experiment on IGROV1 ovarian it was 2.75 µM; with OVCAR-4 ovarian, 5.36 µM; in the experiment on SNB-75 CNS it was 9.05 µM.

As to `CCOC(=O)NC(=O)c1cn(CCN2CCN(C(=O)NCCCCCCNC(=O)N3CCN(CCn4cc(C(=O)NC(=O)OCC)c(=O)[nH]c4=O)CC3)CC2)c(=O)[nH]c1=O`, the TGI with NCI-H460 lung, with OVCAR-3 ovarian, in the experiment on HOP-92 NSCLC, in the experiment on RXF 393 renal, in the experiment on SK-MEL-5 melanoma and with HCT-116 colon was more than 100 µM throughout. In addition, the TGI in the experiment on K-562 leukemia, with IGROV1 ovarian, in the experiment with OVCAR-4 ovarian and with SNB-75 CNS was more than 100 µM each time.

As to `O=C(/C=C/c1ccccc1)Oc1cccc2cccnc12`, the TGI is 35.4 µM with NCI-H460 lung; 24.6 µM in the experiment with OVCAR-3 ovarian; 81.6 µM in the experiment with HOP-92 NSCLC; more than 85.4 µM in the experiment on RXF 393 renal; 24 µM in the experiment with SK-MEL-5 melanoma; 10.9 µM in the experiment on HCT-116 colon. In addition, the TGI with K-562 leukemia was more than 100 µM; with IGROV1 ovarian, 32.4 µM; with OVCAR-4 ovarian it was 27.6 µM; in the experiment on SNB-75 CNS, more than 71 µM.

For the compound `C=C(c1ccccc1)C1(O)CCCCC1N` (stereo not drawn), the TGI with NCI-H460 lung, with OVCAR-3 ovarian, in the experiment with HOP-92 NSCLC, in the experiment with RXF 393 renal, in the experiment with SK-MEL-5 melanoma and in the experiment with HCT-116 colon was more than 100 µM throughout. Besides, the TGI in the experiment with K-562 leukemia, with IGROV1 ovarian, in the experiment on OVCAR-4 ovarian and in the experiment with SNB-75 CNS was more than 100 µM in each case.

Regarding `C=CCc1c(Cl)nc(Cl)nc1Cl`, the TGI stood at 3.55 µM in the experiment with NCI-H460 lung; 0.311 µM in the experiment with OVCAR-3 ovarian; 0.749 µM with HOP-92 NSCLC; 0.601 µM with RXF 393 renal; 0.301 µM in the experiment on SK-MEL-5 melanoma; 1.18 µM with HCT-116 colon. Also, the TGI came to 0.125 µM in the experiment on K-562 leukemia, 1.36 µM with IGROV1 ovarian, 0.84 µM in the experiment with OVCAR-4 ovarian and 5.87 µM in the experiment on SNB-75 CNS.

`COc1cc(/C=C/C(=O)/C=C/c2cc(OC)c3c(c2)OCO3)cc2c1OCO2`: the GI50 is more than 100 µM in the experiment with NCI-H460 lung; 7.66 µM in the experiment with OVCAR-3 ovarian; 58.5 µM in the experiment on HOP-92 NSCLC; 2.65 µM in the experiment on RXF 393 renal; 5.59 µM in the experiment on SK-MEL-5 melanoma; 1.21 µM in the experiment with HCT-116 colon. Besides, the GI50 was 22.9 µM in the experiment with K-562 leukemia, 4.78 µM in the experiment on IGROV1 ovarian, 52.8 µM in the experiment with OVCAR-4 ovarian and 8.55 µM in the experiment with SNB-75 CNS. The TGI was more than 100 µM in the experiment on NCI-H460 lung; more than 100 µM in the experiment with OVCAR-3 ovarian; more than 100 µM in the experiment on HOP-92 NSCLC; 6.57 µM with RXF 393 renal; more than 100 µM in the experiment on SK-MEL-5 melanoma; 2.78 µM in the experiment with HCT-116 colon. Further, the TGI in the experiment with K-562 leukemia was more than 100 µM; with IGROV1 ovarian, more than 100 µM; in the experiment on OVCAR-4 ovarian it was more than 100 µM; with SNB-75 CNS, 42.5 µM.

`CC1CC(C)CC(C)C(O)/C(C#N)=C/C=C/CC(C2CCCC2C(=O)O)OC(=O)CC(O)C(C)C1` (stereo not drawn): the GI50 with NCI-H460 lung is 0.0518 µM; in the experiment on OVCAR-3 ovarian it was 0.0358 µM and 0.0178 µM; in the experiment with RXF 393 renal, 0.00363 µM; in the experiment with SK-MEL-5 melanoma it was 0.0282 µM and 0.0232 µM; in the experiment with HCT-116 colon, 0.0473 µM; in the experiment with K-562 leukemia, 0.0263 µM and < 0.0121 µM. Further, the GI50 is 0.0231 µM in the experiment with IGROV1 ovarian, 0.126 µM in the experiment with OVCAR-4 ovarian and 0.0267 µM with SNB-75 CNS. The TGI with NCI-H460 lung is 0.371 µM; in the experiment on OVCAR-3 ovarian, 0.199 µM and 0.0879 µM; in the experiment with HOP-92 NSCLC it was 0.0513 µM and 0.0143 µM; with RXF 393 renal, 0.0304 µM and 0.0273 µM; in the experiment on SK-MEL-5 melanoma, 0.122 µM and 0.0932 µM; with HCT-116 colon, 0.7 µM and 0.145 µM. In addition, the TGI in the experiment with K-562 leukemia is 0.066 µM and 0.256 µM; in the experiment on IGROV1 ovarian, 0.128 µM and 0.0412 µM; in the experiment on OVCAR-4 ovarian, 0.51 µM and 1.89 µM; with SNB-75 CNS, 0.0853 µM and 0.11 µM.
